Blank lines part the entries; values can stand above or below the molecule they belong to.
Key:
in vivo = test: in vivo
Protocol: Healthy male SD rats, body weight 200-220 g, randomly divided into 6 groups with each group 3-4 rats, were administered with the subject compound via intragastric administration and intravenous injection, respectively.
The subject compound was prepared with 5% DMSO/5% Twain 80/90% saline into solution for administration.
The rats were fasted for 12 hrs before experiment, free water-drinking, and were all fed 2 h after administration. Blood sampling time and sample treatment:
intragastric administration: 0.25, 0.5, 1.0, 2.0, 3.0, 4.0, 6.0, 8.0, and 24 h after administration;
intravenous administration: 5 min, 0.25, 0.5, 1.0, 2.0, 4.0, 6.0, 8.0, and 24 h after administration.
At the time points defined above, 0.3 ml of venous blood was taken from the posterior venous plexus of rats to heparinized tubes, centrifuged at 11000 rpm for 5 mins to separate the plasma, which was then frozen at −20° C. in a refrigerator.

[1] = system: rabbit sodium citrate anticoagulant plasma; test: In vitro anticoagulant activity: activated partial thromboplastin time (APTT); format: biochemical; conditions: compound concentration that prolonged the APTT time by 1 time vs blank control
Protocol: The experiment used […]-1 immunomagnetic single channel semi-automated blood coagulation analyzer to measure blood coagulation time. Principle: At 37° C., using Kaolin to activate factors □ and □; using cephalin (partial thromboplastin) to replace platelet factor 3; and in the presence of Ca^2+, the time needed for the coagulation of plasma which lacks of platelet is observed as activated partial thromboplastin time. This experiment is a screening test which is sensitive and commonly used for the endogenous blood coagulation system. Test method: To the rabbit sodium citrate anticoagulant plasma (3.8% sodium citrate, 1:9 mixture) were added various concentrations of the compounds to be tested. APTT reagents ([…], Beijing) were used to measure the […] activation time. The compound concentration that prolonged the APTT time by 1 time, when compared with the blank control, was recorded as APTT2, thereby evaluating the anticoagulant activity of the compounds. Rabbit sodium citrate anticoagulant plasma (3.8% sodium citrate plasma, 1:9 mixture) was purchased from Guangzhou Ruite Bio company; […]-1 immunomagnetic single channel semi-automated blood coagulation analyzer and […] blood coagulation 3-item reagents were purchased from Beijing […] instrument company. […] Each concentration of each sample was assayed in 3-6 duplicate wells, and the experiment was independently carried out for 2-3 times.

[2] = system: rabbit sodium citrate anticoagulant plasma; test: In vitro anticoagulant activity: prothrombin time (PT); format: biochemical; conditions: compound concentration that prolonged the PT time by 1 time vs blank control
Protocol: The experiment used […]-1 immunomagnetic single channel semi-automated blood coagulation analyzer to measure blood coagulation time. Principle: An excessive amount of tissue thromboplastin (infusion of preparations such as human brain, rabbit brain, placenta, and lung tissue) and calcium ion are added to the plasma to be tested, thereby converting prothrombin into thrombin, and the latter converts fibrinogen into fibrin. The time needed for plasma coagulation is observed as prothrombin time. This experiment is the most commonly used screening test for the evaluation of an extrinsic coagulation system. Test method: To the rabbit sodium citrate anticoagulant plasma (3.8% sodium citrate, 1:9 mixture) were added various concentrations of the compounds to be tested. PT reagents ([…], Beijing) were used to measure the prothrombin activation time. The compound concentration that prolonged the PT time by 1 time, when compared with the blank control, was recorded as PT2, thereby evaluating the anticoagulant activity of the compounds. Rabbit sodium citrate anticoagulant plasma (3.8% sodium citrate plasma, 1:9 mixture) was purchased from Guangzhou Ruite Bio company; […]-1 immunomagnetic single channel semi-automated blood coagulation analyzer and […] blood coagulation 3-item reagents were purchased from Beijing […] instrument company. […] Each concentration of each sample was assayed in 3-6 duplicate wells, and the experiment was independently carried out for 2-3 times.

human recombinant FXa = target: T1, human recombinant FXa (Homo sapiens, UniProt P00742); test: FXa inhibitory activity assay (chromogenic substrate, 405 nm); format: biochemical; conditions: inhibitory activity on FXa, preincubated at 37° C. for 10 mins
T1 construct: purchased Calbiochem; host or cells: human plasma
Protocol: Experimental principle and method: FXa cuts the Arg carboxyl end in the substrate N-Z-D-Arg-Gly-Arg-pDA in vitro and releases p-nitrophenylamine which has specific absorption at 405 nm wavelength. The amount of the […] generated is determined at 405 nm to evaluate the activity of the compound to inhibit the human recombinant FXa in vitro.
Human plasma coagulation factor Xa was purchased from Calbiochem; the substrate N-Z-D-Arg-Gly-Arg-pDA was purchased from chromogenic. The subject compound, enzyme and the reaction buffer were mixed and preincubated at 37° C. for 10 mins. The substrate was added. The absorption at 405 nm wavelength was measured continuously over 20 mins. At the same time, a blank control group (without enzyme, 100% inhibition rate) and a negative control group (replace the subject compound with DMSO, 0% inhibition rate) were set up. The reaction system was 100 μl (50 μl of Tris buffer, 10 μl of compound, 20 μl (0.027 U/ml) of enzyme, 20 μl (300 μM) of substrate). Each concentration of each sample was assayed in triplicate. The experiment was carried out for 2 times independently.

thrombus formation = test: In vivo anticoagulant activity: electrically induced carotid artery thrombus formation time; design: species or system rat; conditions: for ED50: Rattus norvegicus, po, male SD rats, intragastric administration, 3 mA electrical stimulation of left common carotid artery 1 h after administration, read-out: ED50 for prolonging the thrombus formation time
Protocol: The rats were fasted for 12 h, then weighted, and treated by intragastric administration. After 45 min, the rats were anesthetized with chloral hydrate (350 mg/kg), immobilized, and the left common carotid artery was exposed by surgery. The artery and the surrounding tissue were separated by plastic wrap. Electrical stimulation was started 1 h after intragastric administration. The stimulation electrode of the BT87-4 tester for experimental in vivo thrombus formation was placed at the end of the blood vessels proximal to the heart. 3 mA current was used for a 2 min of stimulation. The instrument started the timer automatically when the stimulation began. The stimulation switch was turned off when the stimulation ended. The stimulation electrode was removed, and a thermostat probe was placed at the end of the artery on the stimulation site, which end is distal to the heart. At the time of 600 seconds, the pointer of the thermostat panel was slowly moved to the position of 0. The time from the start of simulation to the alarm of the instrument was recorded as the time of blood vessel blockage (or the time of thrombus formation). If a drug has antithrombosis effect, the time of thrombus formation (time of blood vessel blockage) will be prolonged. IBM SPSS Statistics 20 software was used for the t test of the experimental data.

[3] = male, SD, rat, in vivo, iv, 4.5 mg/kg
[4] = male, SD, rat, in vivo, po, 9 mg/kg
[5] = male, SD, rat, in vivo, iv, 3 mg/kg
[6] = male, SD, rat, in vivo, po, 10 mg/kg

T1 sequence (P00742 235-488 limits assumed): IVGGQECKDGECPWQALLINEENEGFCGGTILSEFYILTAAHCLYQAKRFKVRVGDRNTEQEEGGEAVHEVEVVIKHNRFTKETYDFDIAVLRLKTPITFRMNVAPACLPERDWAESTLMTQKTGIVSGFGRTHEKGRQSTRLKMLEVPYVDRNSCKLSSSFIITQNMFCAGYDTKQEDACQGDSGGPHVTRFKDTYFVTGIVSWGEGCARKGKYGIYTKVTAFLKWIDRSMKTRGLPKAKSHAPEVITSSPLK
T1 sequence (P00742 41-179 partner limits assumed): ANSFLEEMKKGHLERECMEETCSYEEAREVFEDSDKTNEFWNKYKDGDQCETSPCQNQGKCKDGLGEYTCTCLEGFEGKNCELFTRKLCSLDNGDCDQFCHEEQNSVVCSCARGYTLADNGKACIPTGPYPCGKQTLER

SMILES: O=C(NC[C@@H]1OC(=O)N2c3ccc(N4CCCCC4=O)cc3OC[C@@H]12)c1ccc(Cl)s1 [Compound 2, 5-chloro-N-(((3S,3aS)-1-oxo-7-(2-oxopiperidin-1-yl)-1,3,3a,4-tetrahydrobenzo[b]oxazolo[3,4-d][1,4]oxazin-3-yl)methyl)thiophene-2-carboxamide]
- F (in vivo; male, SD, rat, in vivo): 42.0%
- CLz (in vivo; [3]): 2.28 mL/min/kg
- MRT (in vivo; [3]): 3.04 h
- Vss (in vivo; [3]): 0.406 L/kg
- Cmax (in vivo; [4]): 6927 ng/mL
- MRT (in vivo; [4]): 3.4 h
- Tmax (in vivo; [4]): 0.67 h
- AUC0-t (in vivo; rat, in vivo, iv, 4.5 mg/kg): 31057 ngh/mL
- AUC0-∞ (in vivo; rat, in vivo, iv, 4.5 mg/kg): 33562 ngh/mL
- AUC0-t (in vivo; rat, in vivo, po, 9 mg/kg): 26119 ngh/mL
- AUC0-∞ (in vivo; rat, in vivo, po, 9 mg/kg): 28527 ngh/mL
- T1/2 (in vivo; rats, intravenous injection (4.5 mg/Kg)): 1.95 h
- T1/2 (in vivo; rats, oral administration (9 mg/Kg)): 2.10 h
- APTT2 [1]: 0.932 µM
- PT2 [2]: 1.06 µM

SMILES: O=C(NC[C@@H]1OC(=O)N2c3ccc(N4CCOCC4=O)cc3OC[C@@H]12)c1ccc(Cl)cc1 [Compound 17, 4-chloro-N-(((3S,3aS)-1-oxo-7-(3-oxomorpholin-4-yl)-1,3,3a,4-tetrahydrobenzo[b]oxazolo[3,4-d][1,4]oxazin-3-yl)methyl)benzamide]
- IC50 (human recombinant FXa): 12.2 ± 10.5 nM

SMILES: O=C(NC[C@@H]1OC(=O)N2c3ccc(N4CC[C@H](F)CC4=O)cc3OC[C@@H]12)c1ccc(Cl)s1 [Compound 34, 5-chloro-N-(((3S,3aS)-7-((S)-4-fluro-2-oxopiperidin-1-yl)-1-oxo-1,3,3a,4-tetrahydrobenzo[b]oxazolo[3,4-d][1,4]oxazin-3-yl)methyl)-thiophene-2-carboxamide]
- IC50 (human recombinant FXa): 19.3 ± 3.39 nM

SMILES: O=C(NC[C@@H]1OC(=O)N2c3ccc(N4CCOCC4=O)cc3OC[C@@H]12)c1ccc(Cl)s1 [Compound 1, 5-chloro-N-(((3S,3aS)-1-oxo-7-(3-oxomorpholin-4-yl)-1,3,3a,4-tetrahydrobenzo[b]oxazolo[3,4-d][1,4]oxazin-3-yl)methyl)thiophene-2-carboxamide]
- F (in vivo; male, SD, rat, in vivo): 63.7%
- CLz (in vivo; [5]): 3.35 mL/min/kg
- MRT (in vivo; [5]): 1.03 h
- T1/2 (in vivo; [5]): 1.00 h
- Vss (in vivo; [5]): 0.201 L/kg
- Cmax (in vivo; [6]): 11901 ng/mL
- MRT (in vivo; [6]): 2.23 h
- T1/2 (in vivo; [6]): 1.33 h
- Tmax (in vivo; [6]): 0.75 h
- AUC0-t (in vivo; rat, in vivo, iv, 3 mg/kg): 15324 ngh/mL
- AUC0-∞ (in vivo; rat, in vivo, iv, 3 mg/kg): 15339 ngh/mL
- AUC0-t (in vivo; rat, in vivo, po, 10 mg/kg): 32529 ngh/mL
- AUC0-∞ (in vivo; rat, in vivo, po, 10 mg/kg): 33044 ngh/mL
- APTT2 [1]: 0.141 µM
- ED50 (thrombus formation): 2.97 mg/kg
- activity relative to rivaroxaban (thrombus formation; ratio of ED50s for prolonging thrombus formation time, rats): 1.53 times
- IC50 (human recombinant FXa): 2.25 ± 0.01 nM
- PT2 [2]: 0.184 µM

SMILES: O=C(NC[C@H]1CN(c2ccc(N3CCOCC3=O)cc2)C(=O)O1)c1ccc(Cl)s1 [rivaroxaban, reference compound]
- F (in vivo; male, SD, rat, in vivo): 4.6%
- CLz (in vivo; [5]): 4.75 mL/min/kg
- MRT (in vivo; [5]): 0.88 h
- Vd (in vivo; [5]): 0.25 L/kg
- half-life (in vivo; [5]): 0.98 h
- Cmax (in vivo; [6]): 440 ng/mL
- MRT (in vivo; [6]): 7.01 h
- Tmax (in vivo; [6]): 0.56 h
- half-life (in vivo; [6]): 4.64 h
- AUC0-t (in vivo; rat, in vivo, iv, 3 mg/kg): 10548 ngh/mL
- AUC0-∞ (in vivo; rat, in vivo, iv, 3 mg/kg): 10575 ngh/mL
- AUC0-t (in vivo; rat, in vivo, po, 10 mg/kg): 1608 ngh/mL
- AUC0-∞ (in vivo; rat, in vivo, po, 10 mg/kg): 2242 ngh/mL
- APTT2 [1]: 0.315 µM
- ED50 (thrombus formation): 4.53 mg/kg
- PT2 [2]: 0.399 µM

Results, then the molecule that gave them:

- IC50 (human recombinant FXa): 12.2 ± 4.08 nM
SMILES: CS(=O)(=O)c1ccccc1-c1ccc2c(c1)OC[C@H]1[C@H](CNC(=O)c3ccc(Cl)s3)OC(=O)N21 [Compound 36, 5-chloro-N-(((3S,3aS)-7-(2-(methylsulfonyl)phenyl)-1-oxo-1,3,3a,4-tetrahydrobenzo[b]oxazolo[3,4-d][1,4]oxazin-3-yl)methyl)thiophene-2-carboxamide]

- IC50 (human recombinant FXa): 15 ± 1.6 nM
SMILES: O=C(NC[C@@H]1OC(=O)N2c3ccc(N4CC[C@@H](F)CC4=O)cc3OC[C@@H]12)c1ccc(Cl)s1 [Compound 33, 5-chloro-N-(((3S,3aS)-7-((R)-4-fluro-2-oxopiperidin-1-yl)-1-oxo-1,3,3a,4-tetrahydrobenzo[b]oxazolo[3,4-d][1,4]oxazin-3-yl)methyl)-thiophene-2-carboxamide]

- IC50 (human recombinant FXa): 19.6 ± 16.9 nM
SMILES: NS(=O)(=O)c1ccccc1-c1ccc2c(c1)OC[C@H]1[C@H](CNC(=O)c3ccc(Cl)s3)OC(=O)N21 [Compound 35, 5-chloro-N-(((3S,3aS)-1-oxo-7-(2-aminosulfonylphenyl)-1,3,3a,4-tetrahydrobenzo[b]oxazolo[3,4-d][1,4]oxazin-3-yl)methyl)thiophene-2-carboxamide]
